Experimental data published in patent publication US6964983B2, “Compounds that modulate PPAR activity and methods for their preparation” (Warner-Lambert Company, LLC, priority 2002, dated 2005).
Blank lines part the entries; values can stand above or below the compound they belong to.

Tests used:
[1] = target: T1, hPPARβ (Homo sapiens, UniProt Q03181); assay: Transient transfection assay in HepG2 cells, Gal4-hPPARβ chimeric receptor, luciferase reporter; type: cell-based; settings: Hep G2-hBeta EC50, 24 hours incubation; read-out: EC50β nM (Group)
T1 sequence (Q03181 171-441 limits assumed): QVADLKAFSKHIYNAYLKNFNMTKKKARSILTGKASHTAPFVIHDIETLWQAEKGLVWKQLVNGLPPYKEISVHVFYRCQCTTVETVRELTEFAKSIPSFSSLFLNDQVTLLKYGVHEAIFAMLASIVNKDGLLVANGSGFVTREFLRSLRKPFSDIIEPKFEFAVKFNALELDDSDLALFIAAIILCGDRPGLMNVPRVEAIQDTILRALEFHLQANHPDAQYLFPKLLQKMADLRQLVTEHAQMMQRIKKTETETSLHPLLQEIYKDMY
Method in brief: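 HepG2 cells were transiently co-transfected with Gal4-hPPARα or Gal4-hPPARβ chimeras, a UAS-E1B luciferase reporter and a β-gal normalisation plasmid. After re-plating, cells were treated with compound at 50 pM–50 μM for 24 h at 37°C. EC50 values were derived from luciferase read-out normalised to β-gal.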

[2] = system: hApoA1 transgenic mouse; assay: Lipid concentrations in the hApoA1 transgenic mouse; type: in vivo; settings: 30 mg/kg/day, oral gavage
Protocol: B. Effect of PPAR Modulators on Lipid and Human Apoprotein A1 Concentrations in the hApoA1 Transgenic Mouse
Mice, transgenic for human apoA1, were purchased from Jackson laboratories. All animals were allowed normal chow (Ralston-Purina) and water ad libitum in temperature controlled rooms, under a 12-h light, 12-h dark cycle beginning with lights on at 6 AM. During the treatment phase of the study the mice were dosed daily between 6 and 9 AM by oral gavage using a suspension vehicle of 1.5% carboxymethylcellulose plus 0.2 percent Tween-20 (CMC/Tween) containing the specified compounds. Control animals received vehicle alone. Vehicle volume represented 0.25 percent of body weight. Under anesthesia, tail blood was obtained weekly in the morning at the indicated days of study. At termination, tissue samples (liver, intestine, fat, and muscle) were taken to study effects on genes effecting lipid metabolism. Each of the compounds of the present invention that were tested effected a significant increase in HDL over the values observed for the control animals. […] For instance, Example 4 raised HDL-c 97% and lowered triglycerides 65% relative to the control population, Example 6 raised HDL-c 24% and lowered triglycerides 59% relative to the control population, and Example 3 raised HDL-c 9% and lowered triglycerides 70% relative to the control population.

[3] = target: T2, hPPARα (Homo sapiens, UniProt Q07869); assay: Transient transfection assay in HepG2 cells, Gal4-hPPARα chimeric receptor, luciferase reporter; type: cell-based; settings: Hep G2-hAlpha EC50, 24 hours incubation; read-out: EC50α nM (Group)
T2 sequence (Q07869 200-468 limits assumed): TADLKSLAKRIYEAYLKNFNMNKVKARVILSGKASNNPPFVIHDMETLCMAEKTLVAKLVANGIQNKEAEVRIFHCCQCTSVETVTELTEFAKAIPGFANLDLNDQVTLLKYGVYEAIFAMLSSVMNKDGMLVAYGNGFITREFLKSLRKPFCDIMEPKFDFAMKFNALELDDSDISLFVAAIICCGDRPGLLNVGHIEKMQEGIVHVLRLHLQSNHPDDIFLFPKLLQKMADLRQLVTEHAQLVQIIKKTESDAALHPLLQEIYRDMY
Protocol: 1. Test A. Transient Transfections Assay using the HepG2 Hepatoma Cell Line.
HepG2 cells were transiently transfected with an expression plasmids encoding hPPARα, hPPARβ or mPPARγ chimeric receptors and a reporter containing the yeast upstream activating sequence (UAS) upstream of the viral E1B promoter controlling a luciferase reporter gene. In addition, the plasmid pRSVβ-gal was used to control for transfection efficiency. HepG2 cells were grown in DMEM supplemented with 10% FBS and 1 μM non-essential amino acid. On the first day, cells were split into 100 mm dishes at 2.5×10^6/dish and incubated overnight at 37° C./5% CO2. On the second day the cells were transiently transfected with plasmid DNA encoding a chimeric receptor, the luciferase reporter gene; and β-gal. For each 100 mm dish, 15 μg of lucifease reporter (PG5E1b) DNA, 15 μg of Gal4-PPAR chimeric receptor DNA, and 1.5 μg of β-gal plasmid DNA were mixed with 1.4 ml of opti-MEM in the tube. 28 μl of LipoFectamine-2000 reagent was added to 1.4 ml of opti-MEM in the tube, and incubate for 5 min at RT. The diluted Lipofectamine-2000 reagent was combined with the DNA mixture, and incubate for 20 min at RT. After fresh medium was added to each 100 mm dish of cells, 2.8 ml of Lipofectamine2000-DNA mixture was added dropwise to the 100 mm dish containing 14 ml of medium, and incubate 37° C. overnight. On day three cells were trypsinized off the 100 mm dishes and re-plated on 96 well plates. Cells were plated at 2.5×10^4 cells per well in 150 μl of media and 50 μl of compound diluted by media was added. The test compound added were in the range from 50 μM to 50 pM. After addition of compounds, the plates were incubated at 37° C. for 24 hours. Subsequently cells were washed with once with 100 μl of PBS, lysed, and processed for measuring luciferase and β-gal activity using Dual-Light luciferase kit from Tropix ®, according to the manufacturer's recommendations, on an EG&G Bethold MicroLumat LB96P luminometer. EC50 values were obtained using the GraphPad Prism™ program.

[4] = system: insulin resistant cynomolgus monkeys; assay: Eight-week rising-dose treatment of insulin resistant cynomolgus monkeys; type: in vivo; settings: for Leptin (plasma, ELISA): Insulin Resistant Treated; for Insulin Resistant Monkey Mean Body Weight: treated group (Txt)
Protocol: (§1) C. Effect of Compounds of the Invention on Insulin Resistant or Diabetic Cynomolgus Monkeys
Cynomolgus monkeys that were either insulin resistant or diabetic (type II) were treated for eight weeks with [5-Methoxy-2-methyl-4-(4′-trifluoromethyl-biphenyl-4-ylmethylsulfanyl)-phenoxy]-acetic acid in a rising dose fashion (0.1 to 1 mg/kg). Plasma was sampled bi-weekly and analyzed for glycemics and leptin. Body weight was also measured at various time points across the study. The diabetic monkey mean body weight data is presented in Table 2 and the insulin resistant monkey mean body weight data is presented in Table 3. […]

[5] = system: diabetic cynomolgus monkeys; assay: Eight-week rising-dose treatment of diabetic (type II) cynomolgus monkeys; type: in vivo; settings: for Exogenous Insulin Requirement / Leptin (plasma, ELISA): Diabetic Treated; for Diabetic Monkey Mean Body Weight: treated group (Txt)
Protocol: as §1
Cynomolgus monkeys that were either insulin resistant or diabetic (type II) were treated for eight weeks with [5-Methoxy-2-methyl-4-(4′-trifluoromethyl-biphenyl-4-ylmethylsulfanyl)-phenoxy]-acetic acid in a rising dose fashion (0.1 to 1 mg/kg). Plasma was sampled bi-weekly and analyzed for glycemics and leptin. Body weight was also measured at various time points across the study. The diabetic monkey mean body weight data is presented in Table 2 and the insulin resistant monkey mean body weight data is presented in Table 3.
The amount of exogenous insulin the diabetic monkeys received to maintain proper glucose levels, the exogenous insulin requirement, is also presented in Table 4 as baseline values vs. 8-week treatment. […] A reduction in exogenous insulin requirements is a measure of improved insulin sensitivity and glucose control.

[6] = Post-Treatment (8-week treatment)
[7] = 2 wk, rising dose 0.1 to 1 mg/kg
[8] = 8 wk, rising dose 0.1 to 1 mg/kg

SMILES: Cc1cc(SCc2ccc(-c3ccc(C(F)(F)F)cc3)cc2)ccc1OCC(=O)O [Example 3, [2-Methyl-4-(4′-trifluoromethyl-biphenyl-4-ylmethylsulfanyl)-phenoxy]-acetic acid]
EC50 [1]: < 300 nM
lowered triglycerides relative to the control population [2]: 70%
raised HDL-c relative to the control population [2]: 9%
EC50 [3]: 2000 to 5000 nM
melting point: 140 to 141 °C

SMILES: Cc1cc(SCc2ccc(-c3ccc(Cl)c(C(F)(F)F)c3)cc2)ccc1OCC(=O)O [Example 6, [4-(4′-Chloro-3′-trifluoromethyl-biphenyl-4-ylmethylsulfanyl)-2-methyl-phenoxy]-acetic acid]
lowered triglycerides relative to the control population [2]: 59%
raised HDL-c relative to the control population [2]: 24%

SMILES: O=C(O)COc1ccc(SCc2ccc(OCc3ccc(F)c(C(F)(F)F)c3)cc2)c2c1CCC2 [Example 74, {7-[4-(4-Fluoro-3-trifluoromethyl-benzyloxy)-benzylsulfanyl]-indan-4-yloxy}-acetic acid]
EC50 [1]: < 300 nM
EC50 [3]: 2000 to 5000 nM
melting point: 116 to 117 °C

SMILES: O=C(O)COc1ccc(SCc2cccc(OCc3ccc(C(F)(F)F)cc3)c2)c2c1CCC2 [Example 79, {7-[3-(4-Trifluoromethyl-benzyloxy)-benzylsulfanyl]-indan-4-yloxy}-acetic acid]
EC50 [1]: 300 to 500 nM
EC50 [3]: > 5000 nM
melting point: 145 to 146 °C

SMILES: Cc1cc(SCc2ccc(-c3ccc(C(F)(F)F)cn3)cc2)c2c(c1OCC(=O)O)CCO2 [Example 92, {5-Methyl-7-[4-(5-trifluoromethyl-pyridin-2-yl)-benzylsulfanyl]-2,3-dihydro-benzofuran-4-yxoly}-acetic acid]
EC50 [1]: < 300 nM
EC50 [3]: < 300 nM
melting point: 155 to 157 °C

SMILES: COc1cc(OCC(=O)O)c(C)cc1SCc1ccc(-c2ccc(C(F)(F)F)cc2)cc1 [[5-Methoxy-2-methyl-4-(4′-trifluoromethyl-biphenyl-4-ylmethylsulfanyl)-phenoxy]-acetic acid]
Leptin (plasma, ELISA) [4, 6]: 5.73 ± 2.14 ng/mL
Leptin (plasma, ELISA) ([4]; Pre-Treatment (baseline)): 7.33 ± 1.16 ng/mL
effect on plasma leptin values ([4]; insulin resistant obese cynomolgus monkeys, treated vs control, baseline vs 8 weeks): lesser increase in plasma leptin values
Insulin Resistant Monkey Mean Body Weight [4, 7]: 5.26 kg
Insulin Resistant Monkey Mean Body Weight ([4]; 4 wk, rising dose 0.1 to 1 mg/kg): 5.04 kg
Insulin Resistant Monkey Mean Body Weight ([4]; 6 wk, rising dose 0.1 to 1 mg/kg): 4.91 kg
Insulin Resistant Monkey Mean Body Weight [4, 8]: 4.71 kg
Insulin Resistant Monkey Mean Body Weight ([4]; Mean Baseline): 5.29 kg
Insulin Resistant Monkey Mean Body Weight ([4]; −4 wk, before treatment): 5.32 kg
Insulin Resistant Monkey Mean Body Weight ([4]; −7 wk, before treatment): 5.25 kg
Exogenous Insulin Requirement [5, 6]: 18 ± 4 u/day
Leptin (plasma, ELISA) [5, 6]: 10.89 ± 2.7 ng/mL
Exogenous Insulin Requirement ([5]; Pre-Treatment (baseline)): 66 ± 16 u/day
Leptin (plasma, ELISA) ([5]; Pre-Treatment (baseline)): 7.22 ± 0.93 ng/mL
effect on plasma leptin values ([5]; diabetic obese cynomolgus monkeys, treated vs control, baseline vs 8 weeks): lesser increase in plasma leptin values
Diabetic Monkey Mean Body Weight [5, 7]: 8.75 kg
Diabetic Monkey Mean Body Weight ([5]; 5 wk, rising dose 0.1 to 1 mg/kg): 8.37 kg
Diabetic Monkey Mean Body Weight ([5]; 7 wk, rising dose 0.1 to 1 mg/kg): 8.08 kg
Diabetic Monkey Mean Body Weight [5, 8]: 7.8 kg
Diabetic Monkey Mean Body Weight ([5]; Mean Baseline): 8.87 kg
Diabetic Monkey Mean Body Weight ([5]; −4 wk, before treatment): 8.91 kg
Diabetic Monkey Mean Body Weight ([5]; −7 wk, before treatment): 8.84 kg

Now from value to compound, other results behind:

EC50 [1]: < 300 nM
EC50 [3]: < 300 nM
melting point: 170 to 171 °C
SMILES: COc1cc(OCC(=O)O)c(C)cc1SCc1ccc(-c2ccc(C(F)(F)F)cc2)cc1 [Example 4, [5-Methoxy-2-methyl-4-(4′-trifluoromethyl-biphenyl-4-ylmethylsulfanyl)-phenoxy]-acetic acid]
lowered triglycerides relative to the control population [2]: 65%
raised HDL-c relative to the control population [2]: 97%

EC50 [1]: 1000 to 2000 nM
EC50 [3]: > 5000 nM
melting point: 101 to 103 °C
SMILES: Cc1cc(SCc2ccc(OCc3cc(Cl)ccc3Cl)cc2)ccc1OCC(=O)O [Example 59]

EC50 [1]: 1000 to 2000 nM
EC50 [3]: > 5000 nM
melting point: 149 to 150 °C
SMILES: O=C(O)COc1ccc(SCc2ccc(OCc3ccc(Cl)cc3Cl)cc2)c2c1CCC2 [Example 62, {7-[4-(2,4-Dichloro-benzyloxy)-benzylsulfanyl]-indan-4-yloxy}-acetic acid]

EC50 [1]: < 300 nM
EC50 [3]: 2000 to 5000 nM
melting point: 151 to 152 °C
SMILES: O=C(O)COc1ccc(SCc2ccc(OCc3ccc(Cl)c(C(F)(F)F)c3)cc2)c2c1CCC2 [Example 73, {7-[4-(4-Chloro-3-trifluoromethyl-benzyloxy)-benzylsulfanyl]-indan-4-yloxy}-acetic acid]

EC50 [1]: < 300 nM
EC50 [3]: > 5000 nM
melting point: 150 to 152 °C
SMILES: O=C(O)COc1ccc(SCc2ccccc2OCc2ccc(C(F)(F)F)cc2)c2c1CCC2 [Example 81, {7-[2-(4-Trifluoromethyl-benzyloxy)-benzylsulfanyl]-indan-4-yloxy}-acetic acid]

EC50 [1]: 500 to 1000 nM
EC50 [3]: > 5000 nM
melting point: 157 to 159 °C
SMILES: O=C(O)COc1ccc(SCc2cc(-c3ccc(Cl)cc3)on2)c2c1CCC2 [Example 97, {7-[5-(4-Chloro-phenyl)-isoxazol-3-ylmethylsulfanyl]-indan-4-yloxy}-acetic acid]
